Key:
mesenchymal stem cells = assay: Phalloidin (F-actin) / alpha-SMA staining of treated mesenchymal stem cells; type: cell-based, human; conditions: 1 μM
Experimental: Bone Marrow Derived Mesenchymal Stem Cells, human (BM-MSC, ATCC PCS-500-012) were cultured in medium composed of Mesenchymal Stem Cell Basal Medium foe Adipose, Umbilcal and Bone Marrow-derived MSCs (ATCC PCS-400030 and Mesenchymal Stem Cell Growth for Bone Marrow-derived MSCs (ATCC PCS-500-041). Cells were seeded at a density of 15,000 cells/well in a 96-well format.
To induce fibrogenic differentiation BM-MSCs were cultured in a medium composed by Dulbecco's Modified Eagle Medium, 2% horse serum (HS) (Sigma H1270) and 5-10 ng/ml TGF-beta-1 (PreproTech 100-21). Cells were cultured in basal media for 2 days before being switched to fibrogenic differentiation media for 5 days, after which they were taken down for downstream assays. Compound treatment was added when media was switched to fibrogenic differentiation media, cells were treated with 0.1% DMSO if not receiving compound.
Cells were fixed in 4% PFA for 10 min at RT. Fixed cells were washed three times in 1×PBS and incubated in permeabilization solution (0.5% Triton X-100 in 1×PBS) for 10 min. Unspecific binding were saturated by incubating samples in blocking solution (5% donkey serum in 1×PBS) for 1 h. The cells were incubated at RT for 1 hour with gentle shaking in the presence of primary antibody against, alpha-smooth muscle actin (1:1000, Sigma™ A5228). The cells were washed three times with 0.05% Tween-20 in 1×PBS and incubated, for 1 hour at RT, with host-specific secondary antibodies in addition to counterstaining for Alexa Fluor Plus 750 Phalloidin (1:2000, Invitrogen™, A30105) and DAPI (1:2000). Primary and secondary antibodies were diluted according to the manufacturer's recommendations in blocking solution+0.1% Triton X-100. Finally, the cells were washed three times with 0.05% Tween-20 in 1×PBS, washed twice with 1×PBS and stored at 4° C. Images were acquired on a Thermo Scientific™ CellInsight™ CX7LED high content analysis (HCA) imaging instrument using a 10× objective. Nine fields per well were captured for quantification.

[1] = as described; cited from earlier work
D2.mdx mice = assay: 3-month GKT831 treatment of D2.mdx mice, muscle histology and immunofluorescence; type: in vivo, mouse; conditions: 60 mg/kg P.O. Q.D.
From the text: D2.mdx (Jax #013141) and D2.WT (Jax #000671) mice were originally obtained from Jackson Laboratory. The Nox4^KO:mdx mouse line was created by crossing the Nox4^tm1Klr knockout allele ((23); Jax #022996) onto the D2.mdx background for five generations, as previously reported (15). Following the second backcross, only Nox4^tm1Klr/+ mice homozygous for the DBA/2J polymorphism of […] were selected for continued line development (16). This is because both Nox4 and Ltbp4 are located on murine chromosome 7, and cross-over is required for both alleles to segregate together. At the completion of the backcrossing, Nox4 heterozygous breed pairs were mated to produce Nox4^WT:mdx and Nox4^KO:mdx littermates that were used in experiments. All mice were genotyped for Nox4 using primer sequences provided by Jackson Laboratory, and for Ltbp4 and mdx alleles using published genotyping primers (16).
Mice were housed 3-5 mice per cage, randomly assigned into groups, provided ad libitum access to food (NIH-31 Open formulation diet; Envigo #7917), water, and enrichment, and maintained on a 12-hour light/dark system. Once daily (Q.D.) GKT831 (purchased from Ambeed, Inc.) was administered orally (P.O.) suspended at a concentration of 36 mg/mL in a vehicle consisting of sterilized sunflower seed oil (Sigma-Aldrich). […] The GKT831 treatment group received a dose of 60 mg/kg (21). All animal procedures were approved and conducted in accordance with the University of Florida IACUC and reported using the recommendations of ARRIVE guidelines.
OCT-embedded murine tissues were cryo-sectioned at […] and fixed in 4% PFA. Immunofluorescent analysis was performed using anti-NOX4 (1:2000; Abcam #13303), anti-laminin (1:800; Novus #MAB2549), anti-vimentin (1:1000; Novus #MB300), anti-PDGFRα (1:500; R&D Systems #AF1062), anti-SMA (1:1000; Abcam #ab5694), anti-periostin (1:500, Abcam #ab14041), anti-Pax7 (1:100; R&D Systems #MAB1675), anti-Myosin X (1:800; Sigma #HPA024223) and anti-active caspase-3 (1:1000; Cell Signaling 49661) primary antibodies. Mouse tissue sections incubated with mouse monoclonal antibodies were first incubated with a solution containing donkey anti-mouse IgG AffiniPure Fab fragments (1:25 in PBS; Jackson ImmunoResearch #715-007-003) for one hour prior to blocking. Following overnight incubation in primary antibody, sections were rinsed with PBS and incubated with the appropriate species-specific secondary antibody (1:500 dilution). Lipofuscin-dependent autofluorescence was quenched using a 0.1% solution of Sudan black B following secondary antibody incubation. Slides were cover-slipped using Prolong Gold mounting reagent (Invitrogen). Images were acquired using a Leica SP8 confocal microscope. All comparative images were stained simultaneously and acquired using identical settings. Human samples were obtained through the National Disease Research Interchange (Philadelphia, PA).
Picrosirius red staining was performed as previously described (14) following decalcification of muscle sections using Formical-2000 (StatLab). Slides were visualized with a Leica DMR microscope, and images were acquired using a Leica DFC310FX camera interfaced with Leica LAS X software. All comparative images were stained simultaneously and acquired using identical settings. Images were processed and analyzed by investigators blinded to study groups using ImageJ software, as previously described (14). Image quantification for each sample consisted of the mean value from five independent and randomly-selected fields of view for each muscle section.

For `CN(C)c1cccc(-c2c3c(=O)n(-c4ccccc4Cl)[nH]c3cc(=O)n2C)c1` [FTX1620, Setanaxib], the “phalloidin (F-actin) staining” value (mesenchymal stem cells) is listed as “significant phalloidin staining”, the “α-SMA immunofluorescence and phalloidin (F-actin) staining” value (mesenchymal stem cells; FIG. 15) is listed as “exhibited both α-SMA immunofluorescence and phalloidin (F-actin) staining” and the oral bioavailability [1] is listed as “orally bioavailable”. For the same compound, the “localization of Pax7 cells” value (D2.mdx mice; D2.mdx gastrocnemius, 3 months) was “largely re-localized”, the “muscle fibers having central nuclei” value (D2.mdx mice; D2.mdx gastrocnemius, 3 months) was “increases” and the “muscle fibers with expression of myosin X” value (D2.mdx mice; D2.mdx gastrocnemius, 3 months) was “increases”. The “myofibroblast numbers (PDGFRα, vimentin, SMA labeling)” value (D2.mdx mice; D2.mdx gastrocnemius, 3 months) was “significantly reduced”, the “muscle fibrosis (picrosirius red, diaphragm and gastrocnemius)” value (D2.mdx mice; D2.mdx mice, 3 months of treatment, evaluated at 6 months of age, vs vehicle) was “reduced D2.mdx muscle fibrosis” and the “periostin+ area” value (D2.mdx mice; D2.mdx muscle, 3 months) was “significantly reduced”.

From patent US20250223560A1, “NOX4 INHIBITOR COMPOSITIONS AND METHODS FOR REGENERATION OF DYSTROPHIC MUSCLE” (FULCRUM THERAPEUTICS, INC., priority 2022, published 2025)
